Assay [1] has as its system PC-3. As to the kind of experiment: Cytotoxicity against human PC3 cells after 72 hrs by CellTiter one aqueous solution assay. It counts as functional, cell-based. As to conditions: PC-3, 72 h.
Assay [2] deals with PC-3. Nature of the assay: Cytotoxicity against human PC3 cells at 0.5 uM after 72 hrs in presence of 41 ug/ml eugenol by CellTiter one aqueous solution assay relative to control. It counts as functional.
Assay [3] has as its system HeLa. As to the kind of experiment: Growth inhibition of human HeLa cells at 10 uM to 1 mM after 24 hrs by MTT assay relative to control. It counts as functional. A general note: Tetrazolium assays rely on reduction of a dye to a coloured formazan, in cell work by metabolically active cells.
The subject of assay [4] is HeLa. As to the kind of experiment: Antiproliferative activity against human HeLa cells at 150 uM after 24 hrs by MTT assay relative to control. It counts as functional.
Assay [5] has as its system HeLa. As to the kind of experiment: Antiproliferative activity against human HeLa cells after 24 hrs by MTT assay relative to control. It counts as functional.
For assay [6], the system named is PC-3. As to the kind of experiment: Cytotoxicity against human PC3 cells at 41 ug/ml after 72 hrs in presence of 0.5 uM 2ME2 by CellTiter one aqueous solution assay relative to control. It counts as functional.
The species named for assay [7] is Mus musculus. Nature of the assay: Down-regulation of c-Myc mRNA expression in mouse relative to control. It counts as functional.
The species entered for assay [8] is Mus musculus. As to the kind of experiment: Down-regulation of H-ras mRNA expression in mouse relative to control. It counts as functional.
For assay [9], the system named is HeLa. Nature of the assay: Antiproliferative activity against human HeLa cells at 15 mM after 24 hrs by MTT assay relative to control. It counts as functional.

For `COc1cc2c(cc1O)CC[C@@H]1[C@@H]2CC[C@]2(C)[C@@H](O)CC[C@@H]12` [2-METHOXYESTRADIOL], in the assay on PC-3 [1], the IC50 (as a rule, the concentration that gives 50% inhibition) was 82 µg/mL. Also, the Activity with PC-3 [2] is listed as 50%.

Consider `C=CCc1ccc(O)c(OC)c1` [EUGENOL], for which, in the assay on HeLa [3], the “growth inhibition (GI)” value was 50%. Further, the Activity with HeLa [4] is 47%; in the assay on HeLa [5], 84%; in the assay on PC-3 [6], 50%; in the assay filed under Mus musculus [7], 40%; in the assay listed under Mus musculus [8], 28%. The compound also displayed an IC50 in the assay with PC-3 [1] of 1000 nM.

Turning to `Nc1ccn([C@@H]2O[C@H](CO)[C@@H](O)C2(F)F)c(=O)n1` [GEMCITABINE], the results for the Activity in the assay with HeLa [9] and with HeLa [5] were 47% and 73%, respectively.
